#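 Method: 48-hour compound exposure of cells in 96-well plates, five concentrations, linear interpolation of endpoints. At the TGI there is no net growth.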
# What was measured:
# Test in all cases: NCI anticancer screen, dose series, 48 h
# 786-0 renal = test system: 786-0 renal
# A498 renal = test system: A498 renal
# A549 NSCLC = test system: A549 NSCLC
# ACHN renal = test system: ACHN renal
# BT-549 breast = test system: BT-549 breast
# CAKI-1 renal = test system: CAKI-1 renal
# CCRF-CEM leukemia = test system: CCRF-CEM leukemia
# COLO 205 colon = test system: COLO 205 colon
# DU-145 prostate = test system: DU-145 prostate
# HCT-116 colon = test system: HCT-116 colon
# HCT-15 colon = test system: HCT-15 colon
# HL-60(TB) leukemia = test system: HL-60(TB) leukemia
# HOP-62 NSCLC = test system: HOP-62 NSCLC
# HS 578T breast = test system: HS 578T breast
# HT29 colon = test system: HT29 colon
# IGROV1 ovarian = test system: IGROV1 ovarian
# K-562 leukemia = test system: K-562 leukemia
# KM12 colon = test system: KM12 colon
# LOX IMVI melanoma = test system: LOX IMVI melanoma
# M14 melanoma = test system: M14 melanoma
# MALME-3M melanoma = test system: MALME-3M melanoma
# MCF7 breast = test system: MCF7 breast
# MDA-MB-231 breast = test system: MDA-MB-231 breast
# MDA-MB-435 = test system: MDA-MB-435
# MDA-N = test system: MDA-N
# MOLT-4 leukemia = test system: MOLT-4 leukemia
# NCI-H226 lung = test system: NCI-H226 lung
# NCI-H23 lung = test system: NCI-H23 lung
# NCI-H460 lung = test system: NCI-H460 lung
# NCI-H522 lung = test system: NCI-H522 lung
# NCI/ADR-RES ovarian = test system: NCI/ADR-RES ovarian
# OVCAR-3 ovarian = test system: OVCAR-3 ovarian
# OVCAR-5 ovarian = test system: OVCAR-5 ovarian
# OVCAR-8 ovarian = test system: OVCAR-8 ovarian
# PC-3 prostate = test system: PC-3 prostate
# RPMI-8226 leukemia = test system: RPMI-8226 leukemia
# RXF 393 renal = test system: RXF 393 renal
# SF-268 CNS = test system: SF-268 CNS
# SF-295 CNS = test system: SF-295 CNS
# SF-539 CNS = test system: SF-539 CNS
# SK-MEL-2 melanoma = test system: SK-MEL-2 melanoma
# SK-MEL-28 melanoma = test system: SK-MEL-28 melanoma
# SK-MEL-5 melanoma = test system: SK-MEL-5 melanoma
# SK-OV-3 ovarian = test system: SK-OV-3 ovarian
# SN12C renal = test system: SN12C renal
# SNB-19 CNS = test system: SNB-19 CNS
# SNB-75 CNS = test system: SNB-75 CNS
# SR leukemia = test system: SR leukemia
# SW-620 colon = test system: SW-620 colon
# T-47D breast = test system: T-47D breast
# TK-10 renal = test system: TK-10 renal
# U251 CNS = test system: U251 CNS
# UACC-257 melanoma = test system: UACC-257 melanoma
# UACC-62 melanoma = test system: UACC-62 melanoma
# UO-31 renal = test system: UO-31 renal
# EKVX NSCLC = test system: EKVX NSCLC
# HCC-2998 colon = test system: HCC-2998 colon
# HOP-92 NSCLC = test system: HOP-92 NSCLC
# OVCAR-4 ovarian = test system: OVCAR-4 ovarian
smiles,measurement,setting,value
CCN1CN(c2ccccc2)C2(CCN(CC3COc4ccccc4O3)CC2)C1=O (stereo not drawn),TGI,786-0 renal,> 100 µM
same,TGI,A498 renal,72.5 µM
same,TGI,A549 NSCLC,> 100 µM
same,TGI,ACHN renal,71.2 µM
same,TGI,BT-549 breast,34.7 µM
same,TGI,CAKI-1 renal,> 100 µM
same,TGI,CCRF-CEM leukemia,83.3 µM
same,TGI,COLO 205 colon,31.5 µM
same,TGI,DU-145 prostate,> 100 µM
same,TGI,HCT-116 colon,43.7 µM
same,TGI,HCT-15 colon,54.2 µM
same,TGI,HL-60(TB) leukemia,45.5 µM
same,TGI,HOP-62 NSCLC,> 100 µM
same,TGI,HS 578T breast,60.2 µM
same,TGI,HT29 colon,46.7 µM
same,TGI,IGROV1 ovarian,> 100 µM
same,TGI,K-562 leukemia,> 100 µM
same,TGI,KM12 colon,36.5 µM
same,TGI,LOX IMVI melanoma,45.2 µM
same,TGI,M14 melanoma,4.99 µM
same,TGI,MALME-3M melanoma,36 µM
same,TGI,MCF7 breast,77.6 µM
same,TGI,MDA-MB-231 breast,4.78 µM
same,TGI,MDA-MB-435,67.2 µM
same,TGI,MDA-N,6.54 µM
same,TGI,MOLT-4 leukemia,57.6 µM
same,TGI,NCI-H226 lung,94.1 µM
same,TGI,NCI-H23 lung,> 100 µM
same,TGI,NCI-H460 lung,45.4 µM
same,TGI,NCI-H522 lung,40.8 µM
same,TGI,NCI/ADR-RES ovarian,> 100 µM
same,TGI,OVCAR-3 ovarian,> 100 µM
same,TGI,OVCAR-5 ovarian,> 100 µM
same,TGI,OVCAR-8 ovarian,> 100 µM
same,TGI,PC-3 prostate,79.2 µM
same,TGI,RPMI-8226 leukemia,57.9 µM
same,TGI,RXF 393 renal,40 µM
same,TGI,SF-268 CNS,> 100 µM
same,TGI,SF-295 CNS,> 100 µM
same,TGI,SF-539 CNS,33.3 µM
same,TGI,SK-MEL-2 melanoma,30.7 µM
same,TGI,SK-MEL-28 melanoma,87.3 µM
same,TGI,SK-MEL-5 melanoma,32.1 µM
same,TGI,SK-OV-3 ovarian,> 100 µM
same,TGI,SN12C renal,> 100 µM
same,TGI,SNB-19 CNS,> 100 µM
same,TGI,SNB-75 CNS,94 µM
same,TGI,SR leukemia,> 100 µM
same,TGI,SW-620 colon,> 100 µM
same,TGI,T-47D breast,67.4 µM
same,TGI,TK-10 renal,> 100 µM
same,TGI,U251 CNS,> 100 µM
same,TGI,UACC-257 melanoma,> 100 µM
same,TGI,UACC-62 melanoma,73.4 µM
same,TGI,UO-31 renal,76.6 µM
O=c1oc2cc(O)ccc2c(O)c1C(c1ccccc1)c1c(O)c2ccc(O)cc2oc1=O,TGI,A498 renal,> 100 µM
same,TGI,A549 NSCLC,> 100 µM
same,TGI,BT-549 breast,> 100 µM
same,TGI,CAKI-1 renal,> 100 µM
same,TGI,CCRF-CEM leukemia,> 100 µM
same,TGI,COLO 205 colon,> 100 µM
same,TGI,DU-145 prostate,> 100 µM
same,TGI,EKVX NSCLC,> 100 µM
same,TGI,HCC-2998 colon,> 100 µM
same,TGI,HCT-116 colon,> 100 µM
same,TGI,HCT-15 colon,> 100 µM
same,TGI,HL-60(TB) leukemia,> 100 µM
same,TGI,HOP-62 NSCLC,> 100 µM
same,TGI,HOP-92 NSCLC,> 100 µM
same,TGI,HS 578T breast,> 100 µM
same,TGI,HT29 colon,> 100 µM
same,TGI,IGROV1 ovarian,> 100 µM
same,TGI,K-562 leukemia,> 100 µM
same,TGI,LOX IMVI melanoma,> 100 µM
same,TGI,M14 melanoma,> 100 µM
same,TGI,MALME-3M melanoma,> 100 µM
same,TGI,MCF7 breast,> 100 µM
same,TGI,MDA-MB-231 breast,> 100 µM
same,TGI,MDA-MB-435,> 100 µM
same,TGI,MDA-N,> 100 µM
same,TGI,MOLT-4 leukemia,> 100 µM
same,TGI,NCI-H226 lung,> 100 µM
same,TGI,NCI-H23 lung,> 100 µM
same,TGI,NCI-H460 lung,> 100 µM
same,TGI,NCI/ADR-RES ovarian,> 100 µM
same,TGI,OVCAR-3 ovarian,> 100 µM
same,TGI,OVCAR-4 ovarian,> 100 µM
same,TGI,OVCAR-5 ovarian,> 100 µM
same,TGI,OVCAR-8 ovarian,> 100 µM
same,TGI,PC-3 prostate,> 100 µM
same,TGI,RXF 393 renal,> 100 µM
same,TGI,SF-268 CNS,> 100 µM
same,TGI,SF-295 CNS,> 100 µM
same,TGI,SF-539 CNS,> 100 µM
same,TGI,SK-MEL-2 melanoma,> 100 µM
same,TGI,SK-MEL-28 melanoma,> 100 µM
same,TGI,SK-MEL-5 melanoma,> 100 µM
same,TGI,SK-OV-3 ovarian,> 100 µM
same,TGI,SN12C renal,> 100 µM
same,TGI,SNB-75 CNS,> 100 µM
same,TGI,SR leukemia,> 100 µM
same,TGI,SW-620 colon,> 100 µM
same,TGI,T-47D breast,> 100 µM
same,TGI,TK-10 renal,> 100 µM
same,TGI,U251 CNS,> 100 µM
same,TGI,UACC-257 melanoma,> 100 µM
same,TGI,UACC-62 melanoma,> 100 µM
same,TGI,UO-31 renal,> 100 µM
